Results published in ChEMBL document CHEMBL1201862, “PubChem BioAssay data set” (2004).
Active and inactive are the calls of the source. No stated cut-off is given here; in the data, actives have a measured IC50 and inactives only a lower limit.

Columns and labels:
Format in all cases: functional
[1] = target: T1, Sentrin-specific protease 8 (Homo sapiens, UniProt Q96LD8); assay: inhibition of human SENP8 cleavage activity – biochemical, luminescence, SAR follow-up (AID 504501)
T1 sequence (Q96LD8 whole entry): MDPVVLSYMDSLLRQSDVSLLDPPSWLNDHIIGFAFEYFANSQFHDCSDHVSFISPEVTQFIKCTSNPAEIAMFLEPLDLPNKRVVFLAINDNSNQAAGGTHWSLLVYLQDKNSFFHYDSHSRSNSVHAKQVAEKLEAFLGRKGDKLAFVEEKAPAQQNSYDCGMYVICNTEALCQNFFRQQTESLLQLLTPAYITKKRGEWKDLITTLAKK

Caspase-3 = target: T2, Caspase-3 (Homo sapiens, UniProt P42574); assay: SAR Analysis of small molecule inhibitors of Sentrin-specific proteases (SENPs) using a Caspase-3 Selectivity assay. [Related pubchem assays (depositor defined):AID2540, AID2599, AID434973, AID489001]
T2 sequence (P42574 whole entry): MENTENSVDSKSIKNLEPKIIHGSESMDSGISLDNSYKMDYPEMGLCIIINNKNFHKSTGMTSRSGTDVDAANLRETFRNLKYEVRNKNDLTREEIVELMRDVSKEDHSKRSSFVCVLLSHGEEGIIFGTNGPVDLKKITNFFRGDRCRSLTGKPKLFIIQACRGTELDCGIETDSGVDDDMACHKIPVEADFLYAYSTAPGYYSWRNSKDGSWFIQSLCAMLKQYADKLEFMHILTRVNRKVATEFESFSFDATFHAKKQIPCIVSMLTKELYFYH

[2] = target: T3, Sentrin-specific protease 6 (Homo sapiens, UniProt Q9GZR1); assay: SAR Analysis of small molecule inhibitors of Sentrin-specific protease 6 (SENP6) using a Luminescent assay. [Related pubchem assays (depositor defined):AID2582, AID2599]
T3 sequence (Q9GZR1 whole entry): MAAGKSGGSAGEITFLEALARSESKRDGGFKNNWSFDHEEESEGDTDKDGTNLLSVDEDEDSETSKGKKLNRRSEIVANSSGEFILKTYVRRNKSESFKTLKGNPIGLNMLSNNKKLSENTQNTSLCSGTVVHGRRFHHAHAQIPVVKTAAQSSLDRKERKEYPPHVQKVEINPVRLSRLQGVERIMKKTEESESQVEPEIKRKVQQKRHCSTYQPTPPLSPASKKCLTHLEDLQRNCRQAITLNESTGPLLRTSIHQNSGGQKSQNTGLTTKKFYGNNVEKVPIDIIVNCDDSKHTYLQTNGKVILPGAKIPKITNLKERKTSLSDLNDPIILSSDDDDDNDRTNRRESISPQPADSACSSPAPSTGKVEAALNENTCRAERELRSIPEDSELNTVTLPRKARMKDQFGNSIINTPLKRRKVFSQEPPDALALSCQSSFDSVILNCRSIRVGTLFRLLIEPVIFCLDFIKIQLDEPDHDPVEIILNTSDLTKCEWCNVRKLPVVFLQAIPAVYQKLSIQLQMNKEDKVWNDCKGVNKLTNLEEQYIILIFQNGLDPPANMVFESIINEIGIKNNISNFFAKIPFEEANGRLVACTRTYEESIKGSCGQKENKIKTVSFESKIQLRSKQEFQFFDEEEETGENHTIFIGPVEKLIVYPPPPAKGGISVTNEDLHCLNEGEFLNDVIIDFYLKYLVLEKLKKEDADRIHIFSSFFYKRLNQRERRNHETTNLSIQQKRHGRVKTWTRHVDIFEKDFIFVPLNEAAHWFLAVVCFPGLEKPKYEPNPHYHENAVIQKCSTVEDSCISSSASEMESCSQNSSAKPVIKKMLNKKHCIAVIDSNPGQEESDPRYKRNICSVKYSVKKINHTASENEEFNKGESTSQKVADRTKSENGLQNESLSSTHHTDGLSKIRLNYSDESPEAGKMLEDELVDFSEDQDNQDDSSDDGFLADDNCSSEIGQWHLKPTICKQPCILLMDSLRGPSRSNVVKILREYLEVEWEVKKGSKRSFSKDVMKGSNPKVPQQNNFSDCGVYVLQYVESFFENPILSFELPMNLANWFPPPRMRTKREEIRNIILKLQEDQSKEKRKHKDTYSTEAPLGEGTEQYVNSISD

[3] = target: T4, Sentrin-specific protease 7 (Homo sapiens, UniProt Q9BQF6); assay: inhibition of human SENP7 cleavage activity – biochemical, luminescence, SAR follow-up (AID 504497)
T4 sequence (Q9BQF6 whole entry): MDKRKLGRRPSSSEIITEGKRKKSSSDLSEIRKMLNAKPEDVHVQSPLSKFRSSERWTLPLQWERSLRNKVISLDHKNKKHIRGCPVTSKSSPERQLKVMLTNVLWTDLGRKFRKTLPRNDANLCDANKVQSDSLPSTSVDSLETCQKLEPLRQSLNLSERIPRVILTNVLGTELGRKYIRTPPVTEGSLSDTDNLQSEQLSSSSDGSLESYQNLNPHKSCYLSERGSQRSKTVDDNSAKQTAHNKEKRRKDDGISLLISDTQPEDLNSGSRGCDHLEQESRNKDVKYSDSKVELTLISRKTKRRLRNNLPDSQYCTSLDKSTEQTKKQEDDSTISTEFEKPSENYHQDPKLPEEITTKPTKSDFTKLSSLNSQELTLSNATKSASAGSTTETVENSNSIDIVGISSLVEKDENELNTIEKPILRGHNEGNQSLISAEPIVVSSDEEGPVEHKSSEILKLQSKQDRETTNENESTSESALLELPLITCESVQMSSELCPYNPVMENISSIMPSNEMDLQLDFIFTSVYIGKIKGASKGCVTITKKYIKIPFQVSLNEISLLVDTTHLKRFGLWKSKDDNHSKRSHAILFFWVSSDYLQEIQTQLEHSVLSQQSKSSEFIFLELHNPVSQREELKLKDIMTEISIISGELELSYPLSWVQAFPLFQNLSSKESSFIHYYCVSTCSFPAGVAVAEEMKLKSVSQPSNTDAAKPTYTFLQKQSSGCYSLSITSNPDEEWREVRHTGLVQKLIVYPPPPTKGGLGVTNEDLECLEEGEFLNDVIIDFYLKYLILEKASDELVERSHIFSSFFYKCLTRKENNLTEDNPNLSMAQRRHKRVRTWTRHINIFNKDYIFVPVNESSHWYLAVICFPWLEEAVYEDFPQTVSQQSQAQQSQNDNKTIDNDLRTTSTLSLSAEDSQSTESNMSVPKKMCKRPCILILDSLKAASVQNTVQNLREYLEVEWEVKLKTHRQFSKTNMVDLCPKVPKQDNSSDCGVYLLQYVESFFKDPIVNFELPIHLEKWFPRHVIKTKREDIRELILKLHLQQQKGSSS

Measured: IC50

Clc1cccc(/N=C/c2ccc(OC3CSC3)cc2)c1
inactive: [1] > 99 µM | Caspase-3 > 99 µM | [2] > 99 µM | [3] > 99 µM
